Reference: patent US20220401483A1, “COMBINATION OF A T CELL THERAPY AND (S)-3-[4-(4-MORPHOLIN-4-YLMETHYL-BENZYLOXY)-L-OXO-L,3-DIHYDRO-ISOINDOL-2-YL]-PIPERIDINE-2,6-DIONE” (Juno Therapeutics, Inc., priority 2019, published 2022)

Legend:
Format in all cases: cell-based, human
RL cells = assay: Rescue of chronically stimulated CAR T cells cultured with RL cells; conditions: Compound B 1 μM, Compound A 0.001, 0.01 or 0.1 μM
Procedure: The RL cells were further used to assess the ability of immunomodulatory compounds to rescue or reverse the anti-CD19 CAR T cells from exhaustion. Anti-CD19 CAR-expressing T cells were stimulated under conditions to induce chronic stimulation and then were subsequently treated (rescue) with Compound B (1 μM) or Compound A (0.001 μM, 0.01 μM or 0.1 μM), or a vehicle control. Long-term, chronic stimulation was carried out by stimulation of CAR T cells with 30 μg/mL plate-bound anti-idiotypic (anti-ID) antibody for 6 days, substantially as described in Example 3. After the chronic stimulation, the CAR-T cells were cultured with RL cells in the presence of Compound B or Compound A. Cytolytic activity was assessed over time by measuring tumor cell number in the culture.

Aiolos = assay: Intracellular Aiolos expression in stimulated anti-CD19 CAR-expressing T cells (flow cytometry MFI)
Procedure: (§1) T cell compositions containing anti-CD19 CAR-expressing T cells were generated from leukapheresis samples from three healthy human adult donors by a process including immunoaffinity-based selection of T cells (including CD4+ and CD8+ cells) from the samples, resulting in two compositions, enriched for CD8+ and CD4+ cells, respectively. The cells were incubated in the presence of (S)-3-[4-(4-morpholin-4-ylmethyl-benzyloxy)-1-oxo-1,3-dihydro-isoindol-2-yl]-piperidine-2,6-dione (Compound A) or 3-(5-amino-2-methyl-4-oxo-4H-quinazolin-3-yl)-piperidine-2,6-dione (Compound B), and expression of the transcription factors Ikaros and Aiolos was assessed. Cells of the enriched CD4+ and CD8+ compositions were separately activated with anti-CD3/anti-CD28 beads and subjected to lentiviral transduction with a vector encoding an anti-CD19 CAR. The anti-CD19 CAR contained an anti-CD19 scFv derived from a murine antibody (variable region derived from FMC63), an immunoglobulin-derived spacer, a transmembrane domain derived from CD28, a costimulatory region derived from 4-1BB, and a CD3-zeta intracellular signaling domain. The expression construct in the viral vector further contained sequences encoding a truncated receptor, which served as a surrogate marker for CAR expression, which was separated from the CAR sequence by a T2A ribosome skip sequence. Transduced populations then were separately incubated in the presence of stimulating reagents for cell expansion. Expanded CD8+ and CD4+ cells were formulated and cryopreserved separately and stored. The cryopreserved CD4+ and CD8+ anti-CD19 CAR-expressing cells from each donor were thawed, and combined at approximately a 1:1 CAR+CD4+:CD8+ ratio prior to use. Approximately 2.5×10^5 cells of the generated CAR+ T cell composition were stimulated overnight with 1 μg/ml of a CAR-specific anti-idiotypic antibody in the presence of 3-(5-amino-2-methyl-4-oxo-4H-quinazolin-3-yl)-piperidine-2,6-dione (Compound B) or (S)-3-[4-(4-morpholin-4-ylmethyl-benzyloxy)-1-oxo-1,3-dihydro-isoindol-2-yl]-piperidine-2,6-dione (Compound A) at concentrations ranging from 10 to 10000 nM or a vehicle control overnight at 37° C., 5% C02. Following overnight incubation, anti-CD19 CAR-expressing T cells were stained with antibodies and analyzed by flow cytometry to assess intracellular levels of Ikaros and Aiolos in CD4+ CAR+ or CD8+ CAR+ cells, as measured by median fluorescence intensity (MFI). Median fluorescence intensity (MFI) values for Ikaros and Aiolos were normalized and calculated as a percentage relative to vehicle control. […] The EC50 for reducing Aiolos and Ikaros expression was calculated as determined from the concentration of the inhibitor that reduced Aiolos or Ikaros MFI to 50% of its maximal MFI in the absence of the inhibitor.

RL tumor spheroids = assay: RL tumor spheroid model with anti-CD19 CAR T cells; conditions: Day 4; 1 μM Compound B, 0.01 μM or 0.1 μM Compound A
Procedure: Cytolytic activity was also assessed in a spheroid model. About 5,000 RL cells were plated 48 hours prior to addition of 5,000 anti-CD19 CAR T cells (1:1 E:T ratio). Anti-CD19 CAR T cells were co-cultured with RL tumor spheroids, in the presence of Compound B (1 μM) or Compound A (0.001 μM, 0.01 μM or 0.1 μM)).

[1] = tested on: Raji or Granta-519 lymphoma cells; assay: Cytolytic assay of CAR T cells treated 3 days, Raji or Granta-519 target cells; conditions: 1 nM, 10 nM or 100 nM, 3 days treatment
Procedure: After 3 days of treatment with Compound A, anti-CD19 CAR T cells were co-cultured with Raji or Granta-519 lymphoma cells using a cytolytic assay. To assess cytolytic activity, the target cells were labeled with NucLight Red (NLR) to permit tracking by fluorescent microscopy. Killing activity was assessed by measuring the loss of viable target cells over 200 hours, as determined by loss of fluorescent signal over time by kinetic fluorescence microscopy (using the INCUCYTE® Live Cell Analysis System, Essen Bioscience). Tumor cell numbers were normalized to time zero and measured over time (mean±SEM).
FIG. 7B depicts the tumor cell numbers of anti-CD19 CAR T cells treated with 1 nM, 10 nM, or 100 nM Compound A as compared with vehicle control (no Compound A) and tumor only.

anti-CD19 CAR T cells = assay: Proliferation and cell cycle of acutely stimulated anti-CD19 CAR T cells
Procedure: Cell cycle and proliferation of anti-CD19 CAR T cells was measured by labeling cells using the Click-iT™ EdU Cell Proliferation Kit after which the prepared cells were analyzed by flow cytometry for DNA content. Numbers of anti-CD19 CAR T cells were measured over time using an IncuCyte® Live-Cell Analysis System.
As shown, treatment with Compound A reduced the proliferation of anti-CD19 CAR T cells. To further assess the effects on reducing proliferation, cell cycle was measured by flow cytometry by analyzing DNA content. FIG. 7D depicts plots of the percentage of cells in G1 phase (mean±SEM from data pooled from 3 donors and 2 independent experiments).

Ikaros = assay: Intracellular Ikaros expression in stimulated anti-CD19 CAR-expressing T cells (flow cytometry MFI)
Procedure: as §1

[2] = overnight incubation, 1 μg/ml anti-idiotypic antibody, average of donors (range, 95% confidence interval)

EC50 (Aiolos; [2]): 2.5 nM
EC50 (Ikaros; [2]): 4 nM
SMILES: O=C1CC[C@H](N2Cc3c(OCc4ccc(CN5CCOCC5)cc4)cccc3C2=O)C(=O)N1 [Compound A, (S)-3-[4-(4-morpholin-4-ylmethyl-benzyloxy)-1-oxo-1,3-dihydro-isoindol-2-yl]-piperidine-2,6-dione]
CAR T cell cytolytic activity, RL cell growth (RL cells): substantially improved
intracellular Aiolos expression (Aiolos; 10 to 10000 nM, overnight): concentration dependent decrease
potency relative to Compound B in degradation of Ikaros and Aiolos (Aiolos; CAR-expressing T cells): 10-20 fold
sensitivity of RL tumor spheroids to compound (RL tumor spheroids): sensitive
cytolytic activity against target cells [1]: improved
proliferation of anti-CD19 CAR T cells (anti-CD19 CAR T cells; 1 nM, 10 nM or 100 nM): reduced
percentage of cells in the G1 phase (anti-CD19 CAR T cells; 3 days treatment): statistically significant increase
intracellular Ikaros expression (Ikaros; 10 to 10000 nM, overnight): concentration dependent decrease
